From BindingDB's records for doi:10.1016/0960-894X(95)00215-F (n/a, 1995)

Molecular target: Phospholipase A2 group IIA
Experiment: Concentration required for in vitro inhibitory activity against human type II phospholipase A2

| IC50 [µM] | Compound |
| --- | --- |
| 4.09 | CCOC(=O)[C@@]1(Cc2ccccc2)S[C@@H](F)C(C)(C)C1=O |
| 0.676 | CCOC(=O)[C@@]1(Cc2ccccc2)S[C@H](F)C(C)(C)C1=O |
